Test results published in patent US20240174673A1, “Spirocycle Containing Pyridine Compounds” (Protego Biopharma, Inc., priority 2022, published 2024).

test system: Recombinant amyloidogenic full length light chain protein WIL-FL T46L; assay: Differential Scanning Fluorimetry (thermal shift) assay; assay type: binding; settings: WIL-FL T46L protein and compound incubated at RT for 30 min before dye; compared to vehicle
Protocol: Differential Scanning Fluorimetry Assay
The stabilization effects the compounds have on the immunoglobulin light chain protein was quantitively measured using a thermal shift assay. Recombinant amyloidogenic full length light chain protein WIL-FL T46L was produced in E. coli, purified, and used in the assay. The Thermal Shift Protein Stability Kit from Biotium was used and the assay was done in 96-well Plates following the manufacturer's instructions. The protein and compounds were incubated at RT for 30 min before adding the dye and subjected to the thermal shift assay. The thermal stability (Tm) of each sample was then determined using standard curve fitting methods and compared to vehicle. Data are expressed as temperature shift: [Tm]compound−[Tm]vehicle.
The compounds provided herein induce shifts in the ranges below: • 0-0.5° C.=* • >0.5-1° C.=** • >1-1.5° C.=*** • >1.5-2.5° C.=**** • >2.5° C.=*****

Compound	DSF temperature shift: [Tm]compound−[Tm]vehicle
Cc1cc(N2CC[C@](C)(c3ccccc3)C2)cnc1C(=O)NCCN1CC2(CCN(c3nccn4ccnc34)CC2)NC1=O (stereo in doubt) [Compound 5, N-(2-(8-(imidazo[1,2-a]pyrazin-8-yl)-2-oxo-1,3,8-triazaspiro[4.5]decan-3-yl)ethyl)-3-methyl-5-(3-methyl-3-phenylpyrrolidin-1-yl)picolinamide]	***** (>2.5° C.=*****)
C[C@H](COc1cnc(C(=O)NCCN2CC3(CCN(c4nccn5ccnc45)CC3)NC2=O)c(Cl)c1)c1ccccc1 (stereo in doubt) [Compound 13, 3-chloro-N-(2-(8-(imidazo[1,2-a]pyrazin-8-yl)-2-oxo-1,3,8-triazaspiro[4.5]decan-3-yl)ethyl)-5-(2-phenylpropoxy)picolinamide]	***** (>2.5° C.=*****)
Cc1cc(N2CCC(C)(c3ccccc3)C2)cnc1C(=O)NCCN1CC2(CCNCC2)NC1=O (stereo not shown) [Compound 2, 3-methyl-5-(3-methyl-3-phenylpyrrolidin-1-yl)-N-(2-(2-oxo-1,3,8-triazaspiro[4.5]decan-3-yl)ethyl)picolinamide]	**** (>1.5-2.5° C.=****)
Cc1cc(N2CC[C@](C)(c3ccccc3)C2)cnc1C(=O)NCCN1CC2(CCN(c3nccn4cncc34)CC2)NC1=O [Compound 3]	***** (>2.5° C.=*****)
Cc1cc(N2CC[C@](C)(c3ccccc3)C2)cnc1C(=O)NCCN1CC2(CCN(c3nccn4cnnc34)CC2)NC1=O [Compound 4]	***** (>2.5° C.=*****)
Cc1cc(N2CC[C@@](C)(c3ccccc3)C2)cnc1C(=O)NCCN1CC2(CCN(c3nccn4ccnc34)CC2)NC1=O [Compound 6]	**** (>1.5-2.5° C.=****)
C[C@]1(c2ccccc2)CCN(c2cnc(C(=O)NCCN3CC4(CCN(c5nccn6ccnc56)CC4)NC3=O)c(Cl)c2)C1 [Compound 7, 3-chloro-N-(2-(8-(imidazo[1,2-a]pyrazin-8-yl)-2-oxo-1,3,8-triazaspiro[4.5]decan-3-yl)ethyl)-5-(3-methyl-3-phenylpyrrolidin-1-yl)picolinamide]	***** (>2.5° C.=*****)
C[C@]1(c2ccccc2)CCN(c2cnc(C(=O)NCCN3CC4(CCN(c5nccn6ccnc56)CC4)NC3=O)c(C(F)(F)F)c2)C1 [Compound 8]	**** (>1.5-2.5° C.=****)
C[C@]1(c2ccccc2)CCN(c2cnc(C(=O)NCCN3CC4(CCN(c5nccn6cnnc56)CC4)NC3=O)c(Cl)c2)C1 [Compound 9]	***** (>2.5° C.=*****)
CC[C@]1(c2ccccc2)CCN(c2cnc(C(=O)NCCN3CC4(CCN(c5nccn6ccnc56)CC4)NC3=O)c(Cl)c2)C1 [Compound 10]	***** (>2.5° C.=*****)
CC[C@]1(c2ccccc2)CCN(c2cnc(C(=O)NCCN3CC4(CCN(c5nccn6cnnc56)CC4)NC3=O)c(Cl)c2)C1 [Compound 11]	***** (>2.5° C.=*****)
C[C@H](COc1cnc(C(=O)NCCN2CC3(CCNCC3)NC2=O)c(Cl)c1)c1ccccc1 [Compound 12]	*** (>1-1.5° C.=***)
Cc1cc(N2CCC(C)(c3ccccc3)C2)cnc1C(=O)NCCN1CC2(CCN(c3nccn4ccnc34)CC2)NC1=O (stereo not shown) [Compound 14]	***** (>2.5° C.=*****)
CCOC(=O)c1ccc(N2CCC3(CC2)CN(CCNC(=O)c2ncc(OC[C@@H](C)c4ccccc4)cc2Cl)C(=O)N3)cn1 [Compound 15]	*** (>1-1.5° C.=***)
CC[C@]1(c2ccccc2)CCN(c2cnc(C(=O)NCCN3CC4(CCN(c5ccnc(C(=O)NC)c5)CC4)NC3=O)c(Cl)c2)C1 [Compound 16]	* (0-0.5° C.=*)
CC[C@]1(c2ccccc2)CCN(c2cnc(C(=O)NCCN3CC4(CCN(c5cncnc5)CC4)NC3=O)c(Cl)c2)C1 [Compound 17]	** (>0.5-1° C.=**)
COC(=O)c1ncc(N2CCC3(CC2)CN(CCNC(=O)c2ncc(OC[C@@H](C)c4ccccc4)cc2Cl)C(=O)N3)cc1F [Compound 18]	** (>0.5-1° C.=**)
COC(=O)c1ccc(N2CCC3(CC2)CN(CCNC(=O)c2ncc(OC[C@@H](C)c4ccccc4)cc2Cl)C(=O)N3)nn1 [Compound 19]	**** (>1.5-2.5° C.=****)
C[C@H](COc1cnc(C(=O)NCCN2CC3(CCN(c4cnc(C(=O)O)c(F)c4)CC3)NC2=O)c(Cl)c1)c1ccccc1 [Compound 20]	** (>0.5-1° C.=**)
C[C@H](COc1cnc(C(=O)NCCN2CC3(CCN(c4ccc(C(=O)O)nn4)CC3)NC2=O)c(Cl)c1)c1ccccc1 [Compound 21]	** (>0.5-1° C.=**)
C[C@H](COc1cnc(C(=O)NCCN2CC3(CCN(c4ccc(C(=O)O)nc4)CC3)NC2=O)c(Cl)c1)c1ccccc1 [Compound 22]	*** (>1-1.5° C.=***)
C[C@H](COc1cnc(C(=O)NCCN2CC3(CCN(c4nccn5cncc45)CC3)NC2=O)c(Cl)c1)c1ccccc1 [Compound 23]	***** (>2.5° C.=*****)
C[C@H](COc1cnc(C(=O)NCCN2CC3(CCN(c4cnccn4)CC3)NC2=O)c(Cl)c1)c1ccccc1 [Compound 24]	**** (>1.5-2.5° C.=****)
CC(=O)N1CCC2(CC1)CN(CCNC(=O)c1ncc(N3CC[C@](C)(c4ccccc4)C3)cc1C)C(=O)N2 [Compound 25]	**** (>1.5-2.5° C.=****)
Cc1cc(N2CCC(C)(c3ccccc3)C2)cnc1CCN1C(=O)NC2(CCN(c3ncccn3)CC2)C1=O (stereo not shown) [Compound 26]	* (0-0.5° C.=*)
